Measurements as given in patent publication US9624215B2, “Amine derivative or salt thereof” (TOYAMA CHEMICAL CO., LTD., priority 2012, dated 2017).
pIC50: −log10 of the molar value.

Experiments:
[1] = system: TNFα production in LPS-stimulated Raw264.7 cells; assay: TNFα production inhibition test; format: cell-based; conditions: Mus musculus, test compound 1 μmol/L, LPS 1 μg/mL, 16 hours, ELISA, read-out: Inhibition rate of TNFα production
Protocol: 7×10^4 mouse macrophage-derived cell line Raw264.7 cells were suspended in 100 μL of RPMI1640 medium containing 10% fetal bovine serum, plated in a 96-well plate and incubated overnight. The culture supernatant was removed and the test compound diluted in RPMI1640 medium containing 1% fetal bovine serum (final concentration: 1 μmol/L) was added. One hour after the addition, LPS (B4:0111) (Sigma-Aldrich, L2630) was added to a final concentration of 1 μg/mL. 16 hours after the stimulation, the culture supernatant was collected and the amount of TNFα produced in the culture supernatant was determined using ELISA kit (R&D Systems, MTA00B).
The inhibition rate was calculated from the following formula. Inhibition rate (%)=100−(amount of TNFα produced in the presence of test compound/amount of TNFα produced in the absence of test compound)×100

[2] = system: normal human neonatal foreskin epidermal keratinocytes (NHEK-F); assay: Cell proliferation inhibition test; format: cell-based; conditions: Keratinocyte, 72 h, NHEK-F cells, three days incubation, ATPlite or CellTiterGlo, read-out: IC50 (concentration of the compound at which the cell count is reduced by 50%)
Procedure, shortened: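 IC50 is the compound level halving cell count relative to untreated wells, with counts from ATP-based luminescence (ATPlite or CellTiterGlo). Readout followed 3 days of compound exposure of overnight-attached neonatal foreskin keratinocytes (2×10^3/well, Humedia-EG2 medium).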

[3] = system: TPA-induced ear edema and acanthosis in Balb/c mice; assay: Mouse TPA-induced ear-swelling model; format: in vivo; conditions: topical, 240 h, 1% w/v solution, 20 μL applied to ear once a day from day 0 to day 9, female Balb/c mice, read-out: Inhibition rate of change in ear thickness on day 10
Protocol: Seven-week-old female Balb/c mice (Charles River Laboratories Japan) were used. 20 μL of a 20 ng/mL solution of TPA (Wako Pure Chemical Industries, 162-23591) dissolved in 5% DMSO/acetone was applied to the outer side of the mouse ear on day 0, day 2, day 4, day 7 and day 9 to induce ear edema and acanthosis. The test compound was dissolved in a 5% DMSO/acetone solution (concentration: 1% w/v) and 20 μL of the resulting solution was applied to the outer side of the ear once a day from day 0 to day 9. For the control group, a 5% DMSO/acetone solution was similarly applied. The TPA solution and the test compound solution were mixed and applied on the days for TPA application (day 0, day 2, day 4, day 7 and day 9). The ear thickness was chronologically measured on days 0-4 and days 7-10 using a micrometer (Mitutoyo, MDC-25MJT). The change in ear thickness and the inhibition rate were determined by the following formulas. Change in ear thickness=(ear thickness measured on day 10)−(ear thickness measured on day 0 before TPA application) Inhibition rate (%)=100−(change in ear thickness for test compound group/change in ear thickness for control group)×100

| Structure (SMILES) | inhibition at 1 µM [1] | pIC50 [2] | inhibition in vivo at 1 % strength [3] |
| --- | --- | --- | --- |
| O=C(O)c1cc(Cl)ccc1Nc1ccc2c(c1)CCN(Cc1ccccc1)C2=O [Example 265, 2-((2-benzyl-1-oxo-1,2,3,4-tetrahydroisoquinolin-6-yl)amino)-5-chlorobenzoic acid] | ≥ 50% | – | – |
| O=C(O)c1cc(Cl)ccc1Nc1ccc2c(ccn2-c2ccccc2C(F)(F)F)c1 [Example 337, 5-chloro-2-((1-(2-(trifluoromethyl)phenyl)-1H-indol-5-yl)amino)benzoic acid] | ≥ 50% | ≥ 8.00 | – |
| O=C(O)c1cc(C2CC2)ccc1Nc1cnc2c(ccn2Cc2ccccc2)c1 [Example 27, 2-((1-benzyl-1H-pyrrolo(2,3-b)pyridin-5-yl)amino)-5-cyclopropylbenzoic acid] | ≥ 50% | ≥ 8.00 | – |
| O=C(O)c1cc(C2CC2)ccc1Nc1ccc2c(ccn2-c2ccccc2)c1 [Example 59, 5-cyclopropyl-2-((1-phenyl-1H-indol-5-yl)amino)benzoic acid] | ≥ 50% | ≥ 8.00 | – |
| O=C(O)c1cc(Cl)ccc1Nc1ccc2c(ccn2C2CC2)c1 [Example 98, 5-chloro-2-((1-(cyclopropyl)-1H-indol-5-yl)amino)benzoic acid] | ≥ 50% | 7.00 to 8.00 | – |
| O=C(O)c1cc(Cl)ccc1Nc1ccc2c(c1)oc(=O)n2Cc1ccccc1 [Example 61, 2-((3-benzyl-2-oxo-2,3-dihydrobenzo[d]oxazol-6-yl)amino)-5-chlorobenzoic acid] | ≥ 50% | 7.00 to 8.00 | – |
| O=C(O)c1cc(C2CC2)ccc1Nc1ccc2c(ccn2Cc2ccc(N3CCOCC3)cc2)c1 [Example 196, 5-cyclopropyl-2-((1-(4-morpholinobenzyl)-1H-indol-5-yl)amino)benzoic acid] | ≥ 50% | 7.00 to 8.00 | – |
| O=C(O)c1cc(Cl)cnc1Nc1ccc2c(cnn2Cc2ccccc2)c1 [Example 354, 2-((1-benzyl-1H-indazol-5-yl)amino)-5-chloronicotinic acid] | ≥ 50% | 7.00 to 8.00 | – |
| O=C(O)c1cc(Cl)ccc1Nc1ccc2c(c1)CN(c1ccccc1)C2=O [Example 281, 5-chloro-2-((1-oxo-2-phenylisoindolin-5-yl)amino)benzoic acid] | ≥ 50% | 6.00 to 7.00 | – |
| O=C(O)c1cc(C2CC2)ccc1Nc1ccc2c(ccn2Cc2ccc(N3CCCCC3)cc2)c1 [Example 194, 5-cyclopropyl-2-((1-(4-(piperidin-1-yl)benzyl)-1H-indol-5-yl)amino)benzoic acid] | ≥ 50% | ≥ 8.00 | – |
| O=C(O)c1cc(C2CC2)ccc1Nc1ccc2c(c1)n(CC(F)(F)F)c(=O)n2-c1ccccc1 [Example 80, 5-cyclopropyl-2-((2-oxo-1-phenyl-3-(2,2,2-trifluoroethyl)-2,3-dihydro-1H-benzo[d]imidazol-5-yl)amino)benzoic acid] | ≥ 50% | 7.00 to 8.00 | – |
| O=C(O)c1cc(Cl)ccc1Nc1ccc2c(cnn2Cc2ccccc2)c1 [Example 21, 2-((1-benzyl-1H-indazol-5-yl)amino)-5-chlorobenzoic acid] | ≥ 50% | ≥ 8.00 | – |
| NC(=O)c1ccc(-n2ccc3cc(Nc4ccc(C5CC5)cc4C(=O)O)ccc32)cc1 [Example 106-2, 2-((1-(4-Carbamoylphenyl)-1H-indol-5-yl)amino)-5-cyclopropylbenzoic acid] | ≥ 50% | – | – |
| N#Cc1ccc(-n2ccc3cc(Nc4ccc(C5CC5)cc4C(=O)O)ccc32)cc1 [Example 106-1, 2-((1-(4-Cyanophenyl)-1H-indol-5-yl)amino)-5-cyclopropylbenzoic acid] | ≥ 50% | – | – |
| O=C(O)c1cc(C2CC2)ccc1Nc1ccc2c(c1)CC(=O)N2Cc1ccccc1 [Example 107, 2-((1-benzyl-2-oxoindolin-5-yl)amino)-5-cyclopropylbenzoic acid] | ≥ 50% | 7.00 to 8.00 | – |
| O=C(O)c1cc(Cl)ccc1Nc1ccc2c(ccn2-c2cccc(C(F)(F)F)c2)c1 [Example 333, 5-chloro-2-((1-(3-(trifluoromethyl)phenyl)-1H-indol-5-yl)amino)benzoic acid] | ≥ 50% | ≥ 8.00 | – |
| CC(C)(C)c1cc2cc(Nc3ccc(C4CC4)cc3C(=O)O)ccc2[nH]1 [Example 110, 2-((2-(tert-butyl)-1H-indol-5-yl)amino)-5-cyclopropylbenzoic acid] | ≥ 50% | 7.00 to 8.00 | – |
| COCCOc1cccc(Cn2ccc3cc(Nc4ccc(Cl)cc4C(=O)O)ccc32)c1 [Example 298, 5-chloro-2-((1-(3-(2-methoxyethoxyl)benzyl)-1H-indol-5-yl)amino)benzoic acid] | ≥ 50% | ≥ 8.00 | – |
| O=C(O)c1cc(C2CC2)ccc1Nc1ccc2c(ccn2-c2ccc(C(F)(F)F)cc2)c1 [Example 375, 5-cyclopropyl-2-((1-(4-(trifluoromethyl)phenyl)-1H-indol-5-yl)amino)benzoic acid] | ≥ 50% | ≥ 8.00 | – |
| O=C(O)c1cc(Cl)ccc1Nc1ccc2c(ccn2-c2ccc(F)cc2)c1 [Example 331, 5-chloro-2-((1-(4-fluorophenyl)-1H-indol-5-yl)amino)benzoic acid] | ≥ 50% | ≥ 8.00 | – |
| O=C(O)c1cc(Cl)ccc1Nc1ccc2c(c1)CCC(=O)N2Cc1ccccc1 [Example 267, 2-((1-benzyl-2-oxo-1,2,3,4-tetrahydroquinolin-6-yl)amino)-5-chlorobenzoic acid] | ≥ 50% | – | – |
| O=C(O)c1cc(C2CC2)ccc1Nc1ccc2c(c1)CN(Cc1ccccc1)C2=O [Example 287, 2-((2-benzyl-1-oxoisoindolin-5-yl)amino)-5-cyclopropylbenzoic acid] | ≥ 50% | – | – |
| O=C(O)c1cc(Cl)ccc1Nc1ccc2c(c1)[nH]c(=O)n2Cc1ccccc1 [Example 63, 2-((1-benzyl-2-oxo-2,3-dihydro-1H-benzo[d]imidazol-5-yl)amino)-5-chlorobenzoic acid] | ≥ 50% | – | – |
| Cn1cc(-c2ccccc2F)c2cc(Nc3ncc(C4CC4)cc3C(=O)O)ccc21 [Example 557, 5-cyclopropyl-2-((3-(2-fluorophenyl)-1-methyl-1H-indol-5-yl)amino)nicotinic acid] | – | 7.00 to 8.00 | ≥ 20% |
| O=C(O)c1cc(C2CC2)cnc1Nc1ccc2c(ccn2Cc2cccc(F)c2F)c1 [Example 642, 5-cyclopropyl-2-((1-(2,3-difluorobenzyl)-1H-indol-5-yl)amino)nicotinic acid] | – | ≥ 8.00 | ≥ 20% |
| Cc1ccc(Cn2ccc3cc(Nc4ncc(C5CC5)cc4C(=O)O)ccc32)cc1 [Example 457, 5-cyclopropyl-2-((1-(4-methylbenzyl)-1H-indol-5-yl)amino)nicotinic acid] | – | ≥ 8.00 | ≥ 20% |
| CCC(CC)Cn1ccc2cc(Nc3ncc(C4CC4)cc3C(=O)O)ccc21 [Example 632, 5-cyclopropyl-2-((1-(2-ethylbutyl)-1H-indol-5-yl)amino)nicotinic acid] | – | ≥ 8.00 | ≥ 20% |
| O=C(O)c1cc(C2CC2)cnc1Nc1ccc2c(ccn2Cc2ccccc2F)c1 [Example 458, 5-cyclopropyl-2-((1-(2-fluorobenzyl)-1H-indol-5-yl)amino)nicotinic acid] | – | ≥ 8.00 | ≥ 20% |
